Laboratory results published in ChEMBL document CHEMBL3272310, “Effect of chain length on critical micelle formation and protein binding of quaternary ammonium compounds” (J Med Chem, 1976).

Key:
[1] = Critical micelle concentration of the compound; type: ADME
Albumin = Albumin (Bos taurus, UniProt P02769); experiment: Binding affinity to bovine serum albumin; settings: cattle, isolated protein
[2] = 1-Octanol-water partition coefficient, log P of the compound; type: physicochemical

Albumin, sequence (P02769 whole entry): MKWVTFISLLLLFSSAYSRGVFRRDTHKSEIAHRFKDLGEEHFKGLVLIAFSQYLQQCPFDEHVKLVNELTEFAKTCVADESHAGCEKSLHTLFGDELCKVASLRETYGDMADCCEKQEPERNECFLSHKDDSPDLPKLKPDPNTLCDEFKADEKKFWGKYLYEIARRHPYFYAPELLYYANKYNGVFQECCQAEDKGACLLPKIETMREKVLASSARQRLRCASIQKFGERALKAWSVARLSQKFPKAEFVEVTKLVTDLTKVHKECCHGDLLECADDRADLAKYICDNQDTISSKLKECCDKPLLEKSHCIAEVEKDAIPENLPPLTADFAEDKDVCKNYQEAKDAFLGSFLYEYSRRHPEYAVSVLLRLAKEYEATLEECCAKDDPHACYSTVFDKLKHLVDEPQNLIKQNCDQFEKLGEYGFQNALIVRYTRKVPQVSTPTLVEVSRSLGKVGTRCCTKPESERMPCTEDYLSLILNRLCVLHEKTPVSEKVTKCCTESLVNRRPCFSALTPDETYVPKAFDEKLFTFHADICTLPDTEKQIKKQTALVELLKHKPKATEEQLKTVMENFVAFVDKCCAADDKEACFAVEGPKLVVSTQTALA

Row | Structure (SMILES) | log1/CMC [1] | log K (Albumin) | logP [2]
1 | CCCCCCCCCCCCCCCCCC[N+](C)(C)Cc1ccccc1.[Cl-] | 4.48 | – | –
2 | CCCCCCCC[N+](C)(C)Cc1ccccc1.[Cl-] | 0.67 | 4.82 | –
3 | CCCCCCCCCCC[N+](C)(C)Cc1ccccc1.[Cl-] | 1.85 | 4.55 | –
4 | CCCCCCCCCCCCCCCCC[N+](C)(C)Cc1ccccc1.[Cl-] | 4 | 3.55 | –
5 | CCCCCCCCCCCCCCCCCCC[N+](C)(C)Cc1ccccc1.[Cl-] | 4.74 | – | –
6 | CCCC[N+](C)(C)Cc1ccccc1 | – | – | -1.85
7 | CCCCCCCCCCCC[N+](C)(C)Cc1ccccc1.[Cl-] [BENZODODECINIUM CHLORIDE] | 2.16 | 4.26 | –
8 | CCCCCCCCCCCCCCCC[N+](C)(C)Cc1ccccc1.[Cl-] [CETALKONIUM CHLORIDE] | 3.62 | 3.49 | –
9 | CCCCCCCCCCCCCC[N+](C)(C)Cc1ccccc1.[Cl-] [MIRISTALKONIUM CHLORIDE] | 2.92 | 3.51 | –

Further lines, results first:

Row | log1/CMC [1] | log K (Albumin) | logP [2] | Structure (SMILES)
10 | 1.47 | 5 | – | CCCCCCCCCC[N+](C)(C)Cc1ccccc1.[Cl-]
11 | 3.22 | 3.57 | – | CCCCCCCCCCCCCCC[N+](C)(C)Cc1ccccc1.[Cl-]
12 | – | – | -3.38 | CC[N+](C)(C)Cc1ccccc1
13 | – | – | -1.53 | CCCCCC[N+](C)(C)Cc1ccccc1
14 | – | – | -0.29 | CCCCCCCC[N+](C)(C)Cc1ccccc1
15 | 2.57 | 3.85 | – | CCCCCCCCCCCCC[N+](C)(C)Cc1ccccc1.[Cl-] [BENZALKONIUM CHLORIDE]
